Measurements as given in patent US20230125429A1 (priority 2017, published 2023).

Key:
[1] = tested on: HepG2-GFP orthotopic xenograft tumor; details: Triptonide 25 mg/kg by gavage every other day; Sorafenib intraperitoneal; n=10 per cohort
[2] = tested on: mimosine-treated HepG2 cells; assay: One-hour treatment of mimosine-treated HepG2 cells, live cell imaging; format: cell-based, human; details: one-hour treatment
[3] = tested on: mimosine treated HepG2 cells; assay: Cell cycle analysis by flow cytometry (PI staining); format: cell-based, human; details: 2 µM, by 24 hours
wild-type keratinocytes [4] = assay: Growth of wild-type primary keratinocytes, short-term treatment; format: cell-based, mouse; details: as high as 800 nM, one hour
[5] = tested on: Par2 knockout keratinocytes; assay: Growth of Par2 knockout primary keratinocytes, one hour treatment; format: cell-based, mouse; details: as high as 800 nM, one hour
wild-type keratinocytes [6] = assay: Growth of wild-type primary keratinocytes, continuous exposure; format: cell-based, mouse; details: as low as 1.25 nM (lowest examined), continuous exposure
Protocol: (§1) For the neonatal mouse keratinocyte culture, the dorsal skins of neonatal wild type or Par2 knockout mice were harvested from wild type or Par2 knockout mice, respectively. The skins were incubated overnight at 4° C. in a 0.25% solution of trypsin (Life Technologies, USA) in phosphate-buffered saline (PBS) without calcium and magnesium. The epidermis was then separated from the adjoining dermis, and the dispersed epidermal cells were collected in suspension Eagle’s minimal essential medium (SMEM) (Life Technologies, USA) supplemented with glutamine and 8% calcium free fetal calf serum (FCS) (Life Technologies, USA). The cells were plated onto individual wells of 48 well plates (Corning, USA), which were pre-coated with collagen (Life Technologies, USA), at a density of 70,000 cells/well. The cell cultures were kept for 12 hours at 34° C. in a humidified incubator containing 8% CO2. Low calcium (0.05 mM) S-MEM, containing 8% FCS was then added to initiate the culture. The culture medium was changed every 2 days.
(§2) For primary hepatocytes, the seeded cells were monitored for up to 48 hours either without any treatment (as a control) or with various types of treatments. For primary keratinocytes, cells in 48-well plates were monitored either without any treatment or with various types of treatment for up to 96 hours. For HepG2, cells 96-well plates were monitored either without any treatment or with various types of treatments for up to 48 hours. The IncuCyte Zoom was set to take a set of images at fixed locations (4 per well for 96-well plates and 16 per well for 48-well plates and 12-well plates) every three hours.
To address this question, we took a genetic approach.

[7] = tested on: Par2 knockout keratinocytes; assay: Growth of Par2 knockout primary keratinocytes, continuous exposure; format: cell-based, mouse; details: as low as 1.25 nM (lowest examined)
Protocol: as §1, with “Low calcium (0.05 mM) S-MEM, containing 8% FCS was then added to initiate the culture. The culture medium was changed every 2 days.” left out
as §2, with “The IncuCyte Zoom was set to take a set of images at fixed locations (4 per well for 96-well plates and 16 per well for 48-well plates and 12-well plates) every three hours.” left out

ERK phosphorylation = ERK phosphorylation in HepG2 cells (Western blot); format: cell-based, human; details: serum-starved HepG2; trypsin 50 nM, Triptolide 1 µM, Triptonide 1 µM; 0-40 minutes
HepG2 cells = assay: Blocking the AC-cAMP-PKA pathway, growth of HepG2 cells; format: cell-based, human; details: Triptonide 1 µM, Vidarabine 10 µM, PKI 2.5 µM, alone or combined
cAMP = assay: Measurement of cAMP levels in HepG2 cells; format: cell-based, human; details: treatment 2 hours after mimosine; Trypsin 50 nM, Triptonide 1 µM; serum-free
PKA = assay: Measurement of PKA activity in HepG2 cells; format: cell-based, human; details: one-hour treatment in regular medium (Trypsin 50 nM, Triptonide 1 µM); hour 9 and 10 after mimosine

## CNC(=O)c1cc(Oc2ccc(NC(=O)Nc3ccc(Cl)c(C(F)(F)F)c3)cc2)ccn1 [Sorafenib, reference compound]
[1]
  tumor specific (GFP) signals: lower intensities of the tumor specific signals at all time points

## CC(C)[C@]12O[C@H]1[C@@H]1O[C@]13[C@]1(O[C@H]1C[C@H]1C4=C(CC[C@@]13C)C(=O)OC4)[C@@H]2O [Triptolide, reference compound]
[2]; 1 µM, regardless of time
  growth and mitotic catastrophe: growth inhibitory, but did not cause mitotic catastrophe
[2]; 2 µM, at 0 and 2 hours after mimosine treatment
  growth and chromatin condensation: not only growth inhibitory, but also caused chromatin condensation
[3]
  sub-G1 (<2N, apoptotic) population: significant peaks of the sub-G1
wild-type keratinocytes [4]
  growth inhibitory effect on wild-type keratinocytes: did not have any significant growth inhibitory effect
[5]
  growth inhibitory effect on Par2 knockout keratinocytes: did not have any significant growth inhibitory effect
wild-type keratinocytes [6]
  lethality for wild-type keratinocytes: complete lethality
[7]
  lethality for Par2 knockout keratinocytes: complete lethality
ERK phosphorylation
  levels of phosphorylated ERK: no significant effects

## Nc1ncnc2c1ncn2[C@@H]1O[C@H](CO)[C@@H](O)[C@@H]1O [Vidarabine, reference compound]
HepG2 cells
  effect on growth of HepG2 cells: no significant effects

## Trypsin
ERK phosphorylation
  levels of phosphorylated ERK: two-stage increase
cAMP
  levels of cAMP: modest and transient elevations
PKA
  level of PKA activity around G2/M transition: reduced significantly
